These results are taken from PubChem BioAssay (NCI).

Among the test systems are MDA-MB-231 breast; MCF7 breast; BT-549 breast; LXFL 529 NSCLC; DLD-1 colon; M19-MEL melanoma; KM20L2 colon.
Holding throughout (assay): DTP human tumour cell line panel, 48 h

Values joined by “and” are separate entries in the source; they are usually repeats but may differ in a detail not shown here. Equal entries are not always repeated.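 Where inhibition never reached the appropriate level, the endpoint shown equals the highest concentration tested. Otherwise, values were interpolated linearly from a five-concentration, 48-hour dose response in 96-well plates. GI50 = concentration required for 50% inhibition of growth. TGI marks complete inhibition of growth.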

As a reminder, the GI50 is the concentration at which growth is held to half of that of the control. The term TGI denotes the concentration at which net growth stops. Low readings indicate greater sensitivity of the cells, high ones lower sensitivity of the cells. Take `CC(=O)C1=C(O)C=C2Oc3c(C(=O)/C=C/c4cc(C(F)(F)F)cc(C(F)(F)F)c4)c(O)c(C)c(O)c3[C@]2(C)C1=O`: the values for the GI50 in the experiment on MDA-MB-231 breast, in the experiment with MCF7 breast and with BT-549 breast were 0.525 µM, 0.427 µM and 0.492 µM, respectively. Further, the concentration for total growth inhibition (TGI) with MDA-MB-231 breast was 1.84 µM; in the experiment with MCF7 breast, 1.7 µM; with BT-549 breast it was 1.8 µM.
On to `C=C(CNC(=O)Nc1ccc(-c2ccccc2)cc1)c1ccc(C(=O)Nc2ccccc2N)cc1`, for which, in the experiment with MDA-MB-231 breast, the GI50 is 31.1 µM and the concentration for total growth inhibition (TGI) was above 100 µM. Besides, in the experiment with MCF7 breast, the GI50 was above 100 µM and the TGI is above 100 µM.
On to `CC(=O)N1CCN(C2=Nc3ccccc3CO2)C1=S`, for which the GI50 with MDA-MB-231 breast is above 100 µM; in the experiment with MCF7 breast, 38.2 µM; in the experiment on BT-549 breast it was 40.1 µM. The total growth inhibition concentration (TGI) in the experiment with MDA-MB-231 breast, in the experiment on MCF7 breast and with BT-549 breast was above 100 µM throughout.
Turning to `N#Cc1cc(C#N)c(Cl)nc1N`, in the experiment with MCF7 breast, the total growth inhibition concentration (TGI) was above 10 µM.
Regarding `COc1cc(/C(Cl)=C/C=C/C(=O)c2c(C)[n+]([O-])c3ccc(Cl)cc3[n+]2[O-])cc(OC)c1OC`, the GI50 in the experiment on MDA-MB-231 breast is 6.94 µM; with MCF7 breast, 1.76 µM; in the experiment on BT-549 breast, 6.47 µM. The figures for the TGI in the experiment on MDA-MB-231 breast, in the experiment on MCF7 breast and with BT-549 breast were 17.8 µM, above 50 µM and 39.4 µM, respectively.
`Cc1[nH]ncc1-c1cc2nc(C3CC4CCN3CC4)[nH]c(=O)c2s1` (centres undefined): the GI50 with MDA-MB-231 breast is 4.89 µM; with MCF7 breast, 2.58 µM; with BT-549 breast, 2.59 µM. Besides, the TGI with MDA-MB-231 breast is above 100 µM; with MCF7 breast it was above 100 µM; in the experiment with BT-549 breast it was 29.6 µM.
On to `CC(C)(C)OC(=O)NCCNC1=CC(=O)c2nc3ccccc3c3ccnc1c23`, for which the GI50 was 18.4 µM with MDA-MB-231 breast, 7.42 µM with MCF7 breast and 20.5 µM in the experiment on BT-549 breast. Further, the TGI in the experiment with MDA-MB-231 breast stood at 58.6 µM; in the experiment on MCF7 breast it was 24.4 µM; in the experiment on BT-549 breast it was 51.7 µM.
`O=C(Nc1ccc(Cl)cc1Cl)c1ccc(NC2=C(Cl)C(=O)N(Cc3ccccc3)C2=O)cc1`: the GI50 in the experiment on MDA-MB-231 breast was 17.4 µM; in the experiment with MCF7 breast, 5.91 µM; in the experiment with BT-549 breast, 15.6 µM. Also, the values for the TGI in the experiment with MDA-MB-231 breast, with MCF7 breast and with BT-549 breast were 31.2 µM, 30.6 µM and 30 µM, respectively.
Take `COC(=O)Cc1cc(OC)c(OC)cc1Br`: the concentration for total growth inhibition (TGI) with LXFL 529 NSCLC, in the experiment with DLD-1 colon, in the experiment on M19-MEL melanoma and in the experiment with KM20L2 colon was above 100 µM in each case.
In the case of `O=C(c1ccc2ccccc2c1O)N1CCCCC1`, the TGI in the experiment with MDA-MB-231 breast and in the experiment with MCF7 breast was above 100 µM throughout.
Regarding `Cc1ccccc1NC(=S)Nc1ccccn1`, the GI50 in the experiment on MDA-MB-231 breast is 89.7 µM; in the experiment on MCF7 breast, above 100 µM; with BT-549 breast it was above 100 µM. The total growth inhibition concentration (TGI) in the experiment with MDA-MB-231 breast, with MCF7 breast and in the experiment with BT-549 breast was above 100 µM in each case.
In the case of `O=[As](O)(O)c1ccc(NCc2ccccc2)cc1`, the TGI in the experiment on MDA-MB-231 breast, in the experiment with MCF7 breast and in the experiment with BT-549 breast was above 100 µM each time.
As for `Cc1cc(C)nc(NC(N)=NCCc2ccccc2)n1`, the GI50 is 6.55 µM in the experiment on MDA-MB-231 breast, 2.72 µM in the experiment on MCF7 breast and 3.92 µM in the experiment on BT-549 breast. Moreover, the TGI is 52.8 µM in the experiment with MDA-MB-231 breast, 73.6 µM in the experiment with MCF7 breast and above 100 µM in the experiment with BT-549 breast.
On to `CN1CCc2cc3c(cc2C1O)OCO3` (centres undefined), for which, in the experiment with MDA-MB-231 breast, the GI50 is 17.6 µM and > 100 µM; the total growth inhibition concentration (TGI) was 35 µM and > 100 µM. Further, the concentration for total growth inhibition (TGI) with MCF7 breast is 23.3 µM and > 100 µM.
Consider `C[n+]1c(/C=C\C=C\N2CCCCC2)sc2ccccc21`, for which the GI50 was 1.01 µM with MDA-MB-231 breast, 0.346 µM in the experiment with MCF7 breast and 0.261 µM with BT-549 breast. Besides, the TGI amounted to 25.6 µM in the experiment on MDA-MB-231 breast, 11.8 µM in the experiment on MCF7 breast and 3.5 µM with BT-549 breast.
With `COc1ccc(-c2[nH]ncc2-c2cc3c(c(OC)c2)OCC(=O)N3)cc1`, the GI50 in the experiment on MDA-MB-231 breast is 1.21 µM; with MCF7 breast it was 0.315 µM; in the experiment with BT-549 breast it was 0.469 µM. Besides, the TGI in the experiment on MDA-MB-231 breast was above 100 µM; in the experiment on MCF7 breast it was 62.4 µM; in the experiment on BT-549 breast it was 41.5 µM.
`O=C(c1ccccc1)c1c(NCC(O)CN2CCCC2)n(Cc2ccccc2)c(=O)n(Cc2ccccc2)c1=O` (centres undefined): the GI50 in the experiment with MDA-MB-231 breast was 15.3 µM; in the experiment on MCF7 breast it was 42.5 µM; with BT-549 breast, 13.1 µM. The total growth inhibition concentration (TGI) in the experiment on MDA-MB-231 breast is 29.6 µM; with MCF7 breast, above 100 µM; in the experiment with BT-549 breast it was 27 µM.
On to `COc1cccc([C@H]2CC(=O)c3cc4c(cc3N2)OCO4)c1`, for which, in the experiment with MDA-MB-231 breast, the GI50 is 0.716 µM and the TGI was above 100 µM. In addition, in the experiment with MCF7 breast, the concentration for 50% growth inhibition (GI50) was 0.0568 µM and the TGI is above 100 µM.
For the compound `O=P([O-])(O)OP(=O)([O-])O.[NH-][C@H]1CCCC[C@@H]1[NH-].[OH-].[OH-].[Pt+4]`, the results for the GI50 in the experiment on MDA-MB-231 breast, in the experiment on MCF7 breast and with BT-549 breast were 25 µM, 32.1 µM and 24.3 µM, respectively. In addition, the TGI is 57.2 µM in the experiment with MDA-MB-231 breast, above 100 µM with MCF7 breast and 47.9 µM in the experiment on BT-549 breast.
For `COC(=O)[C@@H](NC(=O)NC(=O)NC(=O)CI)C(C)C`, the GI50 with MDA-MB-231 breast is 17 µM; in the experiment on MCF7 breast it was 3.03 µM; in the experiment on BT-549 breast it was 11.5 µM. Moreover, the TGI in the experiment with MDA-MB-231 breast turned out to be 34.9 µM; in the experiment with MCF7 breast, 12.7 µM; in the experiment with BT-549 breast, 23.7 µM.
Take `COc1cc(-c2nn3c(/C=C4/C(=O)Nc5ccccc54)c(-c4ccc(C)cc4)nc3s2)cc(OC)c1OC`: the figures for the GI50 in the experiment on MDA-MB-231 breast and with BT-549 breast were 3.51 µM and 4.69 µM, respectively. The TGI turned out to be 20.8 µM with MDA-MB-231 breast and 38.1 µM in the experiment on BT-549 breast.
Turning to `CN1CCN(c2ccc(C(=O)Nc3n[nH]c4ccc(Cc5cc(F)cc(F)c5)cc34)c(NC3CCOCC3)c2)CC1`, the GI50 with MDA-MB-231 breast is 1.89 µM and 1.5 µM; in the experiment with MCF7 breast, 0.983 µM and 0.485 µM; with BT-549 breast, 5.61 µM and 1.8 µM. Moreover, the TGI was 5.51 µM and 3.06 µM in the experiment on MDA-MB-231 breast; 5.73 µM and 1.93 µM in the experiment with MCF7 breast; > 10 µM and 3.28 µM with BT-549 breast.
